Data taken from patent US20240287037A1, “CYCLOALKYL COMPOUNDS AND PHARMACEUTICAL COMPOSITIONS THAT MODULATE IKZF2” (Plexium, Inc., priority 2021, published 2024).
Like-named read-outs stand apart in the source and are kept apart here.

Assays:
IKZF2 (Helios) = IKZF2 (Helios) (Homo sapiens (Human), UniProt Q96SW2+Q9UKS7); assay: IKZF2 reporter degradation assay (HEK 293T IKZF2-mNeonGreen reporter cell line); format: cell-based; conditions: 24 hour incubation; for inhibition at 1 µM: HEK-293T, 24 h
From the text: (§1) Polycistronic plasmids were constructed for the mammalian expression of fluorescent reporter fusions of human transcription factors IKZF1 (Ikaros), IKZF2 (Helios), and IKZF3 (Aiolos). The respective protein sequences had their C-terminal end joined to a GGGGS linker repeated three times followed by mNeonGreen, P2A sequence, and mScarlet. The DNA sequences of the open reading frames are as follows:
(§2) IKZF1, IKZF2, and IKZF3 constructs were cloned into the UCOE Hygromycin expression vectors (Millipore Sigma). Reporter constructs were transfected using cationic lipid reagents into adherent HEK 293T cells and stable integrants were selected by treatment with 200 μg/mL hygromycin B. Clonal populations were obtained from the population of stable integrants either by limiting dilution or fluorescence activated cell sorting.
(§3) The clonal stable cell lines were maintained under constant 200 μg/mL hygromycin B selection while being passaged for use in the degradation assays. […] The fluorescence intensity of the IKZF1/2/3-mNeonGreen (FITC channel) and mScarlet (PE channel) reporters were routinely analyzed by flow cytometry to confirm consistent expression levels between experiments.
(§4) The IKZF1/IKZF2/IKZF3 degradation assays were carried out by harvesting the HEK 293T reporter cell lines and resuspending the cells in media formulated for reduced background fluorescence (FluoroBrite; Thermo Fisher). The respective cell lines were seeded at a density of 4000 cells/well into black-walled 384-well optical grade assay tissue culture plates. The cells were incubated overnight at 37° C. to allow for attachment to the assay plate. Dilutions of the compounds were prepared in DMSO from 10 mM compound stocks. The assay plates were treated with appropriate concentrations of the compounds by dispensing the DMSO dilutions in quadruplicate wells with an upper limit of 0.5% final DMSO.
(§5) After 24 hour incubation with the compounds, the assay plates were imaged on an ImageXpress Pico microscopy system (cells maintained at 37° C. during imaging) to obtain the fluorescent readouts. The assay plates were imaged in the FITC and Tetramethylrhodamine (TRITC) channels to obtain the mNeonGreen fluorescence intensity (reporter degradation data) and mScarlet fluorescence intensity (for cell segmentation). 293T-IKZF1 and 293T-IKZF3 reporter cell lines were imaged with exposures of 500 milliseconds (ms) for both FITC and TRITC channels, while the 293T-IKZF2 reporter cell line was imaged with exposures of 1000 ms for FITC and 1250 ms for TRITC. The resulting data was analyzed with Cell Reporter Xpress software using the 2-channel cell scoring analysis with a “percent positive” readout. The TRITC channel was selected for the “nuclei” segmentation with a threshold of 20 while the FITC channel was selected for the “Marker 1” segmentation and a threshold of 100 for the IKZF and IKZF3 reporter lines. […] The minimum segmentation width was set to 6 micrometers and the maximum segmentation width was set to 15 micrometers for all cell lines. The DC50 calculations were determined by regression to best fit four-parameter logistic curves using GraphPad Prism.

[1] = target: human E3 ligase component cereblon (CRBN) (Homo sapiens (Human), UniProt Q96SW2); assay: Cereblon (CRBN) target engagement, NanoBRET TE Intracellular E3 Ligase Assay in transfected HEK-293T cells
Experimental: HEK-293T cells were harvested ca. 75% confluent with trypsin and plated (500,000 cells/well) in a 6-well tissue culture plate in 2 mL of Dulbecco's Modified Eagle Medium (DMEM)^+10% Fetal Bovine Serum (FBS) and incubated overnight at 37° C.
The NanoLue-CRBN fusion vector (Nluc-CRBN; Promega) contains the coding region of human E3 ligase component cereblon (CRBN) fused to the C-terminus of the NanoLuc luciferase coding region. A mixture of 10 ng Nluc-CRBN and 990 ng DDB1 Expression Vector (Promega) was added to 125 μL Opti-Minimum Essential Medium (Opti-MEM™; Thermo Fisher) along with 2 μL P3000 reagent (Thermo Fisher) in a 1.5 mL epppendorf tube. This solution was added to Lipofectamine 3000 transfection reagent (5 μL; Thermo Fisher) in Opti-MEM (125 μL), mixed well, and incubated for 15 minutes at room temperature. The transfection mixture was added dropwise to cells and incubated overnight at 37° C., 5% CO2. Following transfection, cells were washed once with PBS, and trypsin (250 μL) was added and incubated 30-45 see to dislodge cells. Complete media (2 mL) was added to resuspend cells to form a single cell suspension. Cells were centrifuged at 320×g for 5 min at room temperature, the supernatant was removed, and the cell pellet resuspended in Opti-MEM (3 mL; wash step repeated ×2). After final resuspension in 5 mL Opti-MEM, cells were counted and resuspended at 200,000 cells/mL in Opti-MEM.
Cereblon target engagement was monitored by Bioluminescence Resonance Energy Transfer (BRET) in transfected HEK-293T cells using the NanoBRET TE Intracellular E3 Ligase Assay (Promega). Briefly, 384-well plates (white opaque plates, Corning 3574, low binding surface) were seeded with transfected HEK-293T cells (38 μl/well). 2 μL of 10 μM CRBN tracer (diluted 1:5 in Tracer Dilution Buffer) was added to each well. Plates were centrifuged at 320×g for 1 min at room temperature. […] Plates were shaken for 2 minutes on a microplate shaker to mix compounds. Plates were centrifuged at 320×g for 1 min at room temperature, and subsequently incubated for 2 hours at 37° C.
After incubation, plates were allowed to cool to room temperature for 15 minutes. 20 μL of 3X Complete NanoBRET™ Nano-Glo® Substrate plus Inhibitor Solution (Promega, 1:166 Substrate and 1:500 dilution of Extracellular NanoLuc® Inhibitor diluted in Opti-MEM) were added to each well, Plates were incubated with shaking at room temperature for 3 minutes covered with foil. Plates were read on a CLARIOstar microplate reader (BMG LabTech), measuring at 450 nm (donor emission) and 610 nm (acceptor emission). The IC50 values were determined by regression to best fit four-parameter logistic curves using GraphPad Prism.

IKZF3 (Aiolos) = IKZF3 (Aiolos) (Homo sapiens (Human), UniProt Q96SW2+Q9UKT9); assay: IKZF3 reporter degradation assay (HEK 293T IKZF3-mNeonGreen reporter cell line); format: cell-based; conditions: HEK 293T reporter cells, 24 hour incubation
From the text: as §1, §2, §3, §4, §5

GSPT1 = GSPT1 (Homo sapiens (Human), UniProt P15170+Q96SW2); assay: GSPT1 reporter degradation assay (HEK293 hGSPT1 HiBiT-tagged cells); format: cell-based; conditions: 24 hour incubation
Experimental: HEK293_hGSPT1_HiBiT-tagged cells were generated using CRISPR-Cas12a technology. Briefly, ˜400,000 HEK293 cells were transiently co-transfected with precomplexed ribonuclear proteins (RNPs) consisting of […] of crRNA (IDT), […] of Cas12a protein (IDT), 3 μg of ssODN donor (IDT; AltRTM modifications), 78 pmol of electroporation enhancer (IDT), and 200 ng of pMaxGFP (Lonza). The transfection was performed via nucleofection (Lonza, 4D-Nucleofector X-unit) using solution P3 and program CM-130 in a (20 μL) cuvette. Five days post-nucleofection, cells were single-cell-sorted for GFP+ (transfected) cells by FACs in 96-well plates and clonally selected. Clones were screened and verified for the desired modification via targeted deep sequencing using gene-specific primers with partial Illumina adapter overhangs as previously described. In brief, clonal cell pellets were harvested, lysed, and used to generate gene-specific amplicons with partial Illumina adapters in PCR #1. Amplicons were indexed in PCR #2 and pooled with other targeted amplicons for other loci to create sequence diversity. Additionally, 10% PhiX sequencing control V3 (Illumina) was added to the pooled amplicon library prior to running the sample on a Miseq Sequencer System (Illumina) to generate paired 2×250 bp reads. Samples were demultiplexed using the index sequences, fastq files were generated, and NGS analysis was performed using CRIS.py.
The GSTP1 degradation assay was carried out by harvesting the HEK 293T reporter cell lines and resuspending the cells in media formulated for reduced background fluorescence (FluoroBrite; Thermo Fisher). The respective cell lines were seeded at a density of 8,000 cells/well into white-opaque 384-well optical grade assay tissue culture plates (Greiner 781080-20). The cells were incubated overnight at 37° C. to allow for attachment to the assay plate. Dilutions of the compounds were prepared in DMSO from 10 mM compound stocks. […] Plates were centrifuged at 320×g for 2 minutes at room temperature, and subsequently incubated at 37° C.
After 24 hour incubation with the compounds, the plates were allowed to cool to room temperature for 10 minutes. 30 μL of HiBiT lytic buffer+1:50 HiBiT substrate Solution were added to each well. Plates were centrifuged at 320×g for 2 minutes at room temperature and then incubated with shaking at room temperature for 10 minutes covered with foil. Plates were read on a CLARIOstar microplate reader (BMG LabTech), measuring at 450 nm (donor emission) and 610 nm or 630 nm (acceptor emission). The DC50 values were determined by regression to best fit four-parameter logistic curves using GraphPad Prism.

IKZF1 (Ikaros) = IKZF1 (Ikaros) (Homo sapiens (Human), UniProt Q13422+Q96SW2); assay: IKZF1 reporter degradation assay (HEK 293T IKZF1-mNeonGreen reporter cell line); format: cell-based; conditions: HEK 293T reporter cells, 24 hour incubation
From the text: as §1, §2, §3, §4, §5

[2] = Table 3, HEK 293T reporter cells
[3] = second (untitled) table after Table 3
[4] = Table 3, 2 hours at 37° C., read-out: CRBN Binding EC50
[5] = second (untitled) table after Table 3, read-out: CRBN Binding EC50

Chain of human E3 ligase component cereblon (CRBN) (Q96SW2 whole entry): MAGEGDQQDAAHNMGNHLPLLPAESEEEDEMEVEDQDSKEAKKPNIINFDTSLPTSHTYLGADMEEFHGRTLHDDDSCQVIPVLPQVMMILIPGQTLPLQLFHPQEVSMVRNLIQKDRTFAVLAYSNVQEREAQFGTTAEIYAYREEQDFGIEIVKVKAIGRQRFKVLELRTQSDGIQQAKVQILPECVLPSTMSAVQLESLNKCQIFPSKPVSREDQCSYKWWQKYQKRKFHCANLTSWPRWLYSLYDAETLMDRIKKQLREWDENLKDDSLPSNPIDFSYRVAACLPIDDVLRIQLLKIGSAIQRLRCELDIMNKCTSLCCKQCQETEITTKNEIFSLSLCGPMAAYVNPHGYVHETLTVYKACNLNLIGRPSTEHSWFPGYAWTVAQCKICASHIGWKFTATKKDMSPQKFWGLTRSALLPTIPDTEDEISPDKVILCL
Chain of human E3 ligase component cereblon (CRBN) (Q16531 whole entry partner): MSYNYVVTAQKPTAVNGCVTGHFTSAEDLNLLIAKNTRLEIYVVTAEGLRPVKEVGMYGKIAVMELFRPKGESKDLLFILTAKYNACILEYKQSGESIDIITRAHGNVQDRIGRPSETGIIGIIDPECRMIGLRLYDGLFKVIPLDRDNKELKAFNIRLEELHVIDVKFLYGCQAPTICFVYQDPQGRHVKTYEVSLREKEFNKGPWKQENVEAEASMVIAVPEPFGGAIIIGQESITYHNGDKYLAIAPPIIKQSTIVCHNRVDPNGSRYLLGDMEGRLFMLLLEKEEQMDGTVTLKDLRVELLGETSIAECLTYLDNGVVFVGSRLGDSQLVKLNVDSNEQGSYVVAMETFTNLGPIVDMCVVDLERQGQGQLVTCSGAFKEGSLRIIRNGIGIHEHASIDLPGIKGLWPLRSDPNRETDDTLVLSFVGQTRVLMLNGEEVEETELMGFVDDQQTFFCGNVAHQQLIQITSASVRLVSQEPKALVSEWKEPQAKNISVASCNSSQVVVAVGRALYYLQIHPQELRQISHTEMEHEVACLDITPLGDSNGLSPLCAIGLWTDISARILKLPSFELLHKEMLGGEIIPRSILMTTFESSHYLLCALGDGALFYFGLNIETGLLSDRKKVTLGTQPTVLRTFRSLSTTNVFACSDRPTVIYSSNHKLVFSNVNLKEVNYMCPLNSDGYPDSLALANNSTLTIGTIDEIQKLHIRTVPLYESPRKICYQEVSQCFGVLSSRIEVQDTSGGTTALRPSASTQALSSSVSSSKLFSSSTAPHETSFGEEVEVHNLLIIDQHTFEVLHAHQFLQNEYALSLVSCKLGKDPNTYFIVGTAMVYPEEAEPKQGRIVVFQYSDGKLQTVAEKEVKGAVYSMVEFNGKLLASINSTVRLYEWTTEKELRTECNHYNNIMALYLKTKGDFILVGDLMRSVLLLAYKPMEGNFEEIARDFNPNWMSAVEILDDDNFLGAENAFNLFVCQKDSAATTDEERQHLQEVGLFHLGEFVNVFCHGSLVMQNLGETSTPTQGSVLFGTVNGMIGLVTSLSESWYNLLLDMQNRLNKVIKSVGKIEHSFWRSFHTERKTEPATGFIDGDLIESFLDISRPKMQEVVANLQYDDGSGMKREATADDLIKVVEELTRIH
Chain of IKZF2 (Helios) (Q9UKS7 whole entry, the tested form may be a part): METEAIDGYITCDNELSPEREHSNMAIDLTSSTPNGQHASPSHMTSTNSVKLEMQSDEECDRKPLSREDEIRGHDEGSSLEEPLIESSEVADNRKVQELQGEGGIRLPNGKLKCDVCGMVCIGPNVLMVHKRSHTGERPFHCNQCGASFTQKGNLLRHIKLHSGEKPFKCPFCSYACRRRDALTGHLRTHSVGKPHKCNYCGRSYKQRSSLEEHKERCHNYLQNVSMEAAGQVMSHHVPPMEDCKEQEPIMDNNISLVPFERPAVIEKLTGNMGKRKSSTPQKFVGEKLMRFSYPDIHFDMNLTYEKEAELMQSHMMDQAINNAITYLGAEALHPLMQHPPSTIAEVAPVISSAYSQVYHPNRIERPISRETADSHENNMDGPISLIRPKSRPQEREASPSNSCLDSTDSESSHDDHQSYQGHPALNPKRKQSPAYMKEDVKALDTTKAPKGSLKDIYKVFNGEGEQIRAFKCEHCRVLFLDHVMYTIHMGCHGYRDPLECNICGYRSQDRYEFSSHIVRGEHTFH
Chain of IKZF2 (Helios) (Q96SW2 whole entry, the tested form may be a part): as the sequence (Q96SW2 whole entry) above
Chain of IKZF2 (Helios) (Q16531 whole entry partner, the tested form may be a part): as the sequence (Q16531 whole entry partner) above
Chain of IKZF1 (Ikaros) (Q13422 whole entry): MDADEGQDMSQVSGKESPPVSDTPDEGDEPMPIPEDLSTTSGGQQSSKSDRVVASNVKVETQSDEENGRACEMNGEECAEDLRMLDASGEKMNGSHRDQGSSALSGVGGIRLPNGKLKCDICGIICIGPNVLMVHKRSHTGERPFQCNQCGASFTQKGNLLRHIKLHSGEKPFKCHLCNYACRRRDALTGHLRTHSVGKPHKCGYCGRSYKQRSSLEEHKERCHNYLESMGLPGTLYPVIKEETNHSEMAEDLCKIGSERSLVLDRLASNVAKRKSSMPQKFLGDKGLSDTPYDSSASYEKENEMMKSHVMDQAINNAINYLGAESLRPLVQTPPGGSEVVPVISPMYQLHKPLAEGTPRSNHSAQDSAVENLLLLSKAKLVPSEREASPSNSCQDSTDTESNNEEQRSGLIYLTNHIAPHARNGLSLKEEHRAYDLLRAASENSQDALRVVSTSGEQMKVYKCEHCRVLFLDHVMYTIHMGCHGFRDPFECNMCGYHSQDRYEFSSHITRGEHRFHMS
Chain of IKZF1 (Ikaros) (Q96SW2 whole entry): as the sequence (Q96SW2 whole entry) above
Chain of IKZF1 (Ikaros) (Q16531 whole entry partner): as the sequence (Q16531 whole entry partner) above
Chain of IKZF3 (Aiolos) (Q9UKT9 whole entry): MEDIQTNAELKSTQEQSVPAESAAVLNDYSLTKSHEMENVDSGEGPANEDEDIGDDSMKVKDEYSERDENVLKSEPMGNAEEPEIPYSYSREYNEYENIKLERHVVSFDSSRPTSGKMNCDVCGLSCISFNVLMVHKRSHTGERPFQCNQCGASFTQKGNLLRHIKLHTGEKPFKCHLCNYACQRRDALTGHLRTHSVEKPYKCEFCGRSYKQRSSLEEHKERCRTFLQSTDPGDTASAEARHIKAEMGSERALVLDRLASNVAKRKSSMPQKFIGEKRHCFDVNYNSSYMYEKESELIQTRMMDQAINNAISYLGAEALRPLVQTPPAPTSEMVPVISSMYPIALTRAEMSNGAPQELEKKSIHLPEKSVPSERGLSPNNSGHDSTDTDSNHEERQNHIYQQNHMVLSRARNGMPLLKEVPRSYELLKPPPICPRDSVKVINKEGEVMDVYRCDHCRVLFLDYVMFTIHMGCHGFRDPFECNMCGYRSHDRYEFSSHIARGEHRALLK
Chain of IKZF3 (Aiolos) (Q96SW2 whole entry): as the sequence (Q96SW2 whole entry) above
Chain of IKZF3 (Aiolos) (Q16531 whole entry partner): as the sequence (Q16531 whole entry partner) above
Chain of GSPT1 (P15170 whole entry): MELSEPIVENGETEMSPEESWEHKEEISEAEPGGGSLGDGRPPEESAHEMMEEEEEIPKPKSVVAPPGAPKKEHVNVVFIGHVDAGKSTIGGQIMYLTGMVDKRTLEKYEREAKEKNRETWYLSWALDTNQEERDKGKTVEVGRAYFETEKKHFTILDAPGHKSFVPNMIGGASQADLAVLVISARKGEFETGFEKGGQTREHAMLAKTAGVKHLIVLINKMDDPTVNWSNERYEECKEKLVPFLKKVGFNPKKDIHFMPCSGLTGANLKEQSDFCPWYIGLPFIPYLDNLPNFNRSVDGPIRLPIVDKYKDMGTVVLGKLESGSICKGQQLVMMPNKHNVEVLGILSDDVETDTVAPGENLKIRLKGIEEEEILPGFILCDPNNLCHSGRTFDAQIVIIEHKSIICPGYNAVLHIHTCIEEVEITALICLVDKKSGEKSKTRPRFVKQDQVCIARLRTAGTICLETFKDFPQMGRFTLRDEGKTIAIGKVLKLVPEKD
Chain of GSPT1 (Q96SW2 whole entry): as the sequence (Q96SW2 whole entry) above
Chain of GSPT1 (Q16531 whole entry partner): as the sequence (Q16531 whole entry partner) above

Compound	inhibition at 1 µM (IKZF2 (Helios); [2])	inhibition at 1 µM (IKZF2 (Helios); [3])	EC50 [1, 4]	EC50 [1, 5]	also measured
COC1CCC(C2CN([C@H]3CCCC[C@@H]3Oc3ccc4c(c3)CN(C3CCC(=O)NC3=O)C4=O)C2)CC1 (stereo partly drawn) [Compound 7, 3-(5-(((1S,2S)-2-(3-((cis)-4-methoxycyclohexyl)azetidin-1-yl)cyclohexyl)oxy)-1-oxoisoindolin-2-yl)piperidine-2,6-dione]	80.1%				IKZF2% Degradation @ 1 μM (IKZF2 (Helios); [3]): 80.1%
COC1CCC(C2CN([C@H]3CCCC[C@@H]3Oc3ccc4c(c3)CN(C3CCC(=O)NC3=O)C4=O)C2)CC1 (stereo partly drawn) [Compound 8, 3-(5-(((1S,2S)-2-(3-((trans)-4-methoxycyclohexyl)azetidin-1-yl)cyclohexyl)oxy)-1-oxoisoindolin-2-yl)piperidine-2,6-dione]		80.1%			IKZF2% Degradation @ 1 μM (IKZF2 (Helios); [2]): 80.1%
COC1CCC(C2CN([C@H]3CCC[C@@H]3Oc3ccc4c(c3)CN(C3CCC(=O)NC3=O)C4=O)C2)CC1 (stereo partly drawn) [Compound 9, 3-(5-(((1S,2S)-2-(3-((cis)-4-methoxycyclohexyl)azetidin-1-yl)cyclopentyl)oxy)-1-oxoisoindolin-2-yl)piperidine-2,6-dione]	77.7%	77.7%			
COC1CCC(C2CN([C@H]3CCC[C@@H]3Oc3ccc4c(c3)CN(C3CCC(=O)NC3=O)C4=O)C2)CC1 (stereo partly drawn) [Compound 10, 3-(5-(((1S,2S)-2-(3-((trans)-4-methoxycyclohexyl)azetidin-1-yl)cyclopentyl)oxy)-1-oxoisoindolin-2-yl)piperidine-2,6-dione]					IKZF2% Degradation @ 1 μM (IKZF2 (Helios); [2]): 80.8%; IKZF2% Degradation @ 1 μM (IKZF2 (Helios); [3]): 80.8%
COC1CCC(C2CN([C@H]3CCCC[C@@H]3Oc3ccc4c(c3)CN(C35CC(C3)C(=O)NC5=O)C4=O)C2)CC1 (stereo partly drawn) [Compound 11, 1-(5-(((1S,2S)-2-(3-((cis)-4-methoxycyclohexyl)azetidin-1-yl)cyclohexyl)oxy)-1-oxoisoindolin-2-yl)-3-azabicyclo[3.1.1]heptane-2,4-dione]			> 10 µM	> 10 µM	
COC1CCC(C2CN([C@H]3CCC[C@@H]3Oc3ccc4c(c3)CN(C35CC(C3)C(=O)NC5=O)C4=O)C2)CC1 (stereo partly drawn) [Compound 12, 1-(5-(((1S,2S)-2-(3-((cis)-4-methoxycyclohexyl)azetidin-1-yl)cyclopentyl)oxy)-1-oxoisoindolin-2-yl)-3-azabicyclo[3.1.1]heptane-2,4-dione]			> 10 µM	> 10 µM	
O=C1NC(=O)C2(N3Cc4cc(O[C@H]5CCC[C@@H]5N5CC(C6CCC(F)(F)CC6)C5)ccc4C3=O)CC1C2 [Compound 14, 1-(5-(((1S,2S)-2-(3-(4,4-difluorocyclohexyl)azetidin-1-yl)cyclopentyl)oxy)-1-oxoisoindolin-2-yl)-3-azabicyclo[3.1.1]heptane-2,4-dione]			> 10 µM	> 10 µM	
O=C1NC(=O)C2(N3Cc4cc(O[C@H]5CCCC[C@@H]5N5CC(C6CCC(F)(F)CC6)C5)ccc4C3=O)CC1C2 [Compound 15, 1-(5-(((1S,2S)-2-(3-(4,4-difluorocyclohexyl)azetidin-1-yl)cyclohexyl)oxy)-1-oxoisoindolin-2-yl)-3-azabicyclo[3.1.1]heptane-2,4-dione]			6.21 µM	6.21 µM	
N#CC1(C2CN([C@H]3CCCC[C@@H]3Oc3ccc4c(c3)CN(C3CCC(=O)NC3=O)C4=O)C2)CCC1 (stereo partly drawn) [Compound 23, 1-(1-((1S,2S)-2-((2-(2,6-dioxopiperidin-3-yl)-1-oxoisoindolin-5-yl)oxy)cyclohexyl)azetidin-3-yl)cyclobutane-1-carbonitrile]	87.4%	87.4%			DC50 (IKZF3 (Aiolos)): > 30 µM; DC50 (GSPT1): > 30 µM; DC50 (IKZF1 (Ikaros)): > 30 µM; DC50 (IKZF2 (Helios); HEK 293T reporter cells): 3 nM
